One assay has as its target T1, AXOR109 (Homo sapiens, UniProt Q8TDU6).
T1 construct: expressed in transfected cells; host or cells: melanophore cells, transfected by electroporation
T1 sequence (Q8TDU6 1-330): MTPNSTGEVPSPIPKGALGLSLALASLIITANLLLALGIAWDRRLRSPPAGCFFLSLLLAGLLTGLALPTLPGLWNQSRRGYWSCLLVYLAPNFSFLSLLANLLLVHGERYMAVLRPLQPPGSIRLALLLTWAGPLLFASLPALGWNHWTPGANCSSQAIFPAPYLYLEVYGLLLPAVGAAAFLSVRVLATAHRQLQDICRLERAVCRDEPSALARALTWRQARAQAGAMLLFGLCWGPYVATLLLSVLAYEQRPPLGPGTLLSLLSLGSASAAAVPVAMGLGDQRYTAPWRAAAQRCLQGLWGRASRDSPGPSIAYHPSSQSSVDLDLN
The assay can be described thus: Human AXOR109/Melanophore Assay. It is filed as cell-based. As to conditions: melanophore assay; for Emax: 1 h; for EC50: AXOR109 transfected melanophores. The method in brief:
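Readout is melanosome dispersion in melanophores electroporated with human AXOR109, in buffer containing 10 nM melatonin and 1% DMSO. Transmittance was read before and after 1 h compound exposure across 11-point 3-fold dilutions. Response was normalized to 200 nM alpha-MSH as system max, and pEC50 was obtained from a Hill fit.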

The test system of the next assay is GK rats. The assay can be described thus: Effect on glucose, insulin and GLP-1 secretion in GK rats after oral glucose. The format is in vivo, rat. Also noted: Glucose changes / Insulin changes / GLP-1 changes: unit not given here. The note with it: for GLP-1 changes: active GLP-1, DPPIV inhibitor pretreated; for GLP-1 changes / Insulin changes / Glucose changes: 5 mg/kg intracolonic at −30 min, glucose 1 g/kg oral at 0 min; for Insulin changes: plasma; for Insulin changes / Glucose changes: DPPIV inhibitor pretreated; for Glucose changes: whole blood. How it is done:
Eight week old conscious GK rats (four per group) were pretreated with a DPPIV inhibitor immediately after control blood sampling at −40 min (black arrow), and dosed with vehicle (0.5% HPMC/0.1% Tween80) or 5 mg/kg Example 14 through intracolonic injection at −30 time point (blue arrow). Glucose (1 g/kg) was given orally at 0 min. Blood samples were collected at −40, 0, 5, 15, 30, 60, 90 and 120 minutes after dosing. Whole blood glucose, plasma insulin, and active GLP-1 were measured (ELISA kits, LINCO). […] The results are listed in Tables 3a, 3b, and 3c, and graphically represented in FIGS. 2a, 2b, and 2c, respectively.

Setting [1] is: normalized to alpha-MSH system max.

As usually defined, the Emax is the maximal effect, on the per cent scale that the assay sets. In general, EC50 refers to the concentration needed to bring the measured effect to its halfway point.

The compound `COc1ccc(S(=O)(=O)N(C)CCN(C)S(=O)(=O)c2ccc(OC)c(OC)c2)cc1OC` [Example 14, N,N′-1,2-ethanediylbis[N-methyl-3,4-bis(methyloxy)benzenesulfonamide]] gave an Emax at AXOR109 (setting [1]) of 51 to 75%. Also, the EC50 at AXOR109 was below 126 nM. Moreover, the “active GLP-1 and insulin level compared to controls” value in the assay on GK rats (5 mg/kg intracolonic, in words) was “higher level of active GLP-1 and insulin”. The “glucose disposal compared to controls” value in the assay on GK rats (5 mg/kg intracolonic, in words) is “improved glucose disposals”. Further, the GLP-1 changes in the assay on GK rats (0 min) turned out to be 15.08; in the assay with GK rats (15 min), 23.63; in the assay on GK rats (30 min) it was 19.58; in the assay with GK rats (60 min) it was 23.63; with GK rats (90 min), 23.63; with GK rats (120 min), 21.15. Besides, the GLP-1 changes with GK rats (−40 min (before dosing)) is 12.65. The Insulin changes turned out to be 68.06 in the assay on GK rats (0 min); 366.79 with GK rats (15 min); 289.23 with GK rats (30 min); 152.33 with GK rats (60 min); 146.47 in the assay on GK rats (90 min); 158.31 with GK rats (120 min). Moreover, the Insulin changes with GK rats (−40 min (before dosing)) came to 85.82. Moreover, the Glucose changes is recorded as 74.25 in the assay with GK rats (0 min); 173.75 in the assay with GK rats (15 min); 174.75 in the assay with GK rats (30 min); 122.50 in the assay with GK rats (60 min); 110.00 with GK rats (90 min); 114.50 in the assay on GK rats (120 min). In addition, in the assay on GK rats (−40 min (before dosing)), the Glucose changes was determined as 106.75.

`COc1ccc(S(=O)(=O)N2C[C@@H](C)N(S(=O)(=O)c3ccc(OC)c(OC(F)(F)F)c3)[C@@H](C)C2)cc1OC` [Example 36, 4-{[3,4-bis(methyloxy)phenyl]sulfonyl}-2,6-cis-dimethyl-1-({4-(methyloxy)-3-[(trifluoromethyl)oxy]phenyl}sulfonyl)piperazine]: the Emax at AXOR109 (setting [1]) lay within 51 to 75%. At AXOR109, this compound showed an EC50 of 126 to 1000 nM.

Compound `COc1ccc(S(=O)(=O)N2C[C@@H](C)N(S(=O)(=O)c3ccc(OC)c(OC)c3)[C@@H](C)C2)cc1OC` [Example 20, 1,4-bis{[3,4-bis(methyloxy)phenyl]sulfonyl}-2,6-cis-dimethylpiperazine] gave an EC50 on AXOR109 of 1260 to 10000 nM. Further, at AXOR109 (setting [1]), the “% Max” value is “** (“**” = 51% to 75%)”.

On AXOR109 (setting [1]), `COc1ccc(S(=O)(=O)N2CCCN(S(=O)(=O)c3ccc(OC)c(OC(F)(F)F)c3)CC2)cc1OC` [Example 30, 1-{[3,4-bis(methyloxy)phenyl]sulfonyl}-4-({4-(methyloxy)-3-[(trifluoromethyl)oxy]phenyl}sulfonyl)hexahydro-1H-1,4-diazepine] came in with an Emax of 76 to 100%. The same compound gave an EC50 on AXOR109 of 1260 to 10000 nM.

In the case of `COc1ccc(S(=O)(=O)N2C[C@@H](C)N(S(=O)(=O)c3ccc(OC)c(OC)c3)[C@H](C)C2)cc1OC` [Example 17, (2R,6R)-1,4-bis{[3,4-bis(methyloxy)phenyl]sulfonyl}-2,6-dimethylpiperazine], the Emax at AXOR109 (setting [1]) was in the range of 0 to 50%. The compound also showed a half-maximal effective concentration (EC50) on AXOR109 of 126 to 1000 nM.

On AXOR109 (setting [1]), `COc1ccc(S(=O)(=O)N2CCN(S(=O)(=O)c3ccc4c(c3)OCCO4)CC2)cc1OC` [Example 78, 1-{[3,4-bis(methyloxy)phenyl]sulfonyl}-4-(2,3-dihydro-1,4-benzodioxin-6-ylsulfonyl)piperazine] returned an Emax of 51 to 75%. This compound had an EC50 on AXOR109 of 1260 to 10000 nM.

Turning to `CCc1cc(S(=O)(=O)N2CCCN(S(=O)(=O)c3ccc(OC)c(OC)c3)CC2)ccc1OC` [Example 41, 1-{[3,4-bis(methyloxy)phenyl]sulfonyl}-4-{[3-ethyl-4-(methyloxy)phenyl]sulfonyl}hexahydro-1H-1,4-diazepine], the Emax on AXOR109 (setting [1]) lay in the range of 51 to 75%. This compound showed an EC50 at AXOR109 of 126 to 1000 nM.

Compound `COc1ccc(S(=O)(=O)N(C)C[C@H]2CCCN2S(=O)(=O)c2ccc(OC)c(OC)c2)cc1OC` [Example 97, N-[((2R)-1-{[3,4-bis(methyloxy)phenyl]sulfonyl}-2-pyrrolidinyl)methyl]-N-methyl-3,4-bis(methyloxy)benzenesulfonamide] yielded an Emax on AXOR109 (setting [1]) of 76 to 100%. In addition, the concentration for a half-maximal effect (EC50) at AXOR109 was below 126 nM.

In turn, `COc1ccc(S(=O)(=O)N2CCN(S(=O)(=O)c3ccc(OC)c(OC)c3)C(C3CCCCC3)C2)cc1OC` (stereo not drawn) [Example 24, 1,4-bis{[3,4-bis(methyloxy)phenyl]sulfonyl}-2-cyclohexylpiperazine] gave an Emax at AXOR109 (setting [1]) of 51 to 75%. Besides, the EC50 on AXOR109 is 1260 to 10000 nM.

For the compound `COc1ccc(S(=O)(=O)NCCN(C)S(=O)(=O)c2ccc(OC)c(OC)c2)cc1OC` [Example 42, N-[2-({[3,4-bis(methyloxy)phenyl]sulfonyl}amino)ethyl]-N-methyl-3,4-bis(methyloxy)benzenesulfonamide], at AXOR109 (setting [1]), the Emax is 51 to 75%. The compound also gave an EC50 at AXOR109 of 1260 to 10000 nM.

`COc1ccc(S(=O)(=O)N2CCCN(S(=O)(=O)c3ccc(OC)c(OC)c3)CC2)cc1F` [Example 7, 1-{[3,4-bis(methyloxy)phenyl]sulfonyl}-4-{[3-fluoro-4-(methyloxy)phenyl]sulfonyl}hexahydro-1H-1,4-diazepine] had an Emax at AXOR109 (setting [1]) of 0 to 50%. In addition, the half-maximal effective concentration (EC50) on AXOR109 was 1260 to 10000 nM.

`CCN(C[C@@H]1CCCN1S(=O)(=O)c1ccc(OC)c(OC)c1)S(=O)(=O)c1ccc(OC)c(OC)c1` [Example 95, N-[((2S)-1-{[3,4-bis(methyloxy)phenyl]sulfonyl}-2-pyrrolidinyl)methyl]-N-ethyl-3,4-bis(methyloxy)benzenesulfonamide] displayed an Emax at AXOR109 (setting [1]) of 76 to 100%. Also, the 50% effective concentration (EC50) at AXOR109 was 126 to 1000 nM.

On to `CCN(CCN(C1CC1)S(=O)(=O)c1ccc(OC)c(OC)c1)S(=O)(=O)c1ccc(OC)c(OC)c1` [Example 90], for which the maximal effect (Emax) on AXOR109 (setting [1]) lay in the range of 51 to 75%. This compound also had a 50% effective concentration (EC50) on AXOR109 of 126 to 1000 nM.

`COc1ccc(S(=O)(=O)N2C[C@@H](C)N(S(=O)(=O)c3ccc(OC)c(OC)c3)[C@@H](C)C2)cc1F` [Example 32, 1-{[3,4-bis(methyloxy)phenyl]sulfonyl}-4-{[3-fluoro-4-(methyloxy)phenyl]sulfonyl}-2,6-cis-dimethylpiperazine]: the Emax at AXOR109 (setting [1]) was 51 to 75%. Besides, the EC50 at AXOR109 was 126 to 1000 nM.

Compound `COc1ccc(S(=O)(=O)N2CCN(S(=O)(=O)c3ccc(OC)c(OC)c3)CC2)cc1F` [Example 1, 1-{[3,4-bis(methyloxy)phenyl]sulfonyl}-4-{[3-fluoro-4-(methyloxy)phenyl]sulfonyl}piperazine] showed an EC50 at AXOR109 of 126 to 1000 nM.

`COc1ccc(S(=O)(=O)N2CCN(S(=O)(=O)c3ccc(OC)c(OC)c3)[C@@H](C)C2)cc1OC` [Example 19, (2S)-1,4-bis{[3,4-bis(methyloxy)phenyl]sulfonyl}-2-methylpiperazine] returned an Emax on AXOR109 (setting [1]) of 76 to 100%. This compound showed an EC50 on AXOR109 of 1260 to 10000 nM.

Source of the values: US20090069302A1 (SMITHKLINE BEECHAM CORPORATION, priority 2006, published 2009).
